Measured values: US20170050988A1, “DOTAM DERIVATIVES FOR THERAPEUTIC USE” (priority 2013, published 2017)
pIC50: −log10 of the molar value. Starred links: 1 amine or outer side, 2 acyl side, 3 side chain; linkers in the order of their positions; H or OH if unused. Positions of bridges follow the written chain, without caps; N, C: chain ends. Non-standard residues stand in square brackets, D forms with d. Residues, ends and D or L forms follow the SMILES beside them. Chains are numbered I, II in the order given. *: point of attachment. X3 = NCCOCCOCCNC(=O)CN1CCN(CC(=O)NCCOCCOCCN[*:1])CCN(CC(=O)NCCOCCOCCN)CCN(CC(=O)NCCOCCOCCN[*:2])CC1; X2 = CC(C)C[C@H](N[*:1])[C@H](O)CC(=O)[*:2]; Sta = CC(C)C[C@H](N)[C@@H](O)CC(=O)O; Isovaleryl = CC(C)CC(=O)*

Key:
[1] = tested on: pig articular cartilage explants; assay: Ex vivo GAG release model with pig articular cartilage explants; format: cell-based; settings: explants pre-incubated with 1 μM inhibitor 24 h, then washed
[2] = Solubility in phosphate buffer; format: physicochemical; settings: phosphate buffer at pH 7.4; read-out: solubility
Cathepsin D = biological target: T1, Cathepsin D (Homo sapiens, UniProt P07339); assay: Cathepsin D enzyme assay; format: biochemical
T1 construct: purchased Biomol Se-199
Description: For quantification of Cathepsin D inhibitory activity, an enzymatic assay was used that measures the turnover of a quenched, fluorescenctly-labeled, Cathepsin D-cleavable, peptide substrate over time.
Specifically, 13 ng of purified Cathepsin D enzyme (Biomol; Cat.No. Se-199) was administered per well of a 96 well plate, substance/inhibitor of interest was added and the mixture incubated for 10 min. at 37° C. Then, the enzymatic reaction was started by addition of fluorescenctly-labeled, Cathepsin D-Substrat ([…] (7-Methoxycoumarin-4-yl)-acetyl-Pro-Leu-Gly-Leu-(3 [2,4-dinitrophenyl]-L-2,3-diaminopropionyl)-Ala-Arg-NH2 (Bachem M-1895). The reaction volume amounts to 30 μl and contains 50 mM acetic acid, 200 mM NaCl and 0.003% Brij 35 and was adjusted to pH 4.5 with acetic acid. By cleavage of the peptide chain, the […] is released and the emission of fluorescence dye is measured using excitation/emission wavelengths ([…]) on a Tecan Spectrafluor Plus—instrument at 37° C. for 10 min. For the determination of the compound dose response, a 10 mM DMSO stock solution was diluted and tested in a ten-point, three-fold dilution series run in duplicate beginning at 30 μM final concentration. Data were analyzed using a four-parameter curve fit with a fixed minimum and maximum experimentally defined as the average positive and negative controls on each plate.

[3] = Solubility in DMSO after lyophilization; format: physicochemical
Description: 1 equiv. […] DIPEA (10 λl, 60 μmol). The reaction mixture was stirred under argon at room temperature for 2 days. The solvent was directly purified by preparative HPLC to give HHY-328 (4.3 mg, Yield: 22.6%) as a white powder.

[4] = T1 of contrast agent in DPBS; format: physicochemical; settings: 0.2 mM in DPBS
Description: To explore the potential of cartilage targeting agents as practical MRI contrast agents for accurate diagnostic imaging, we investigated HHY-316Gd in vivo with healthy rats. As an essentially non-binding control, contrast agent HHY-341Gd (T1=1368±10 ms, 0.2 mM in DPBS) with the non-binding scrambled peptide sequence YRLGRW and acetylated amine groups was used as reference. MRI was performed using a 4.7 T Bruker BioSpec whole body MR imager. Male skeletally mature Lewis rats were anesthetized (by Isoflurane), fixed in supine position and both knees were placed within a transmitting/receiving wrist coil. […] In the HHY-316Gd applied knees there is a significant MRI signal enhancement of the articular and growth plate cartilages which consist principally of collagen II and proteoglycan. The signal intensity (SI) in the articular cartilage and growth plate increased 86% and 77% after 24 hours following administration of HHY-316Gd and increased 84% and 85% at 72 hours after intra-articular injection, respectively (FIGS. 6-11). […]
To assist histological examination of joint slices after termination of the study, we decided to co-administer a second probe, HHY-338 (T1=11493±27 ms, 0.2 mM in DPBS), containing a Cy5.5 moiety. […] Chondrophyte/osteophyte regions were examined in sections stained with safranin O/fast green and recorded using a Zeiss Miraxscan microscope (FIG. 12b).

T1 sequence (P07339 65-412): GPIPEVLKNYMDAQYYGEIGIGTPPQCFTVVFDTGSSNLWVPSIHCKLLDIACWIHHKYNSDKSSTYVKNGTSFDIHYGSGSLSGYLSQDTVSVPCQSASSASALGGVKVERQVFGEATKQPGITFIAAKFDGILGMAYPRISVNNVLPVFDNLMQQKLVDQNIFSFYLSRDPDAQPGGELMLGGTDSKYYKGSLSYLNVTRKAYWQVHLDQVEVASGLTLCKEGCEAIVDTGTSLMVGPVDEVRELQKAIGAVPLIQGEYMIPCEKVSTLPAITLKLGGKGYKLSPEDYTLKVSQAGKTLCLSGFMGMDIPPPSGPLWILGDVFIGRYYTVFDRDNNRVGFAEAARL

Compound: CC(=O)N[C@@H](Cc1c[nH]c2ccccc12)C(=O)N[C@@H](Cc1ccc(O)cc1)C(=O)N[C@@H](CCCNC(=N)N)C(=O)NCC(=O)N[C@@H](CCCNC(=N)N)C(=O)N[C@@H](CC(C)C)C(=O)NCCOCCOCCNC(=O)CN1CCN(CC(=O)NCCOCCOCCN)CCN(CC(=O)NCCOCCOCCNC(=O)C[C@@H](O)[C@H](CC(C)C)NC(=O)[C@H](C)NC(=O)C[C@H](O)[C@H](CC(C)C)NC(=O)[C@@H](NC(=O)[C@@H](NC(=O)CC(C)C)C(C)C)C(C)C)CCN(CC(=O)NCCOCCOCCN)CC1 [HHY-327, AcWYRGRL-DOTA-Pepstatin A] (I: Ac-WYRGRL / II: Isovaleryl-VV[Sta]A[X2]; linker I:C-II:C via X3)
- inhibition of GAG release ([1]; 24 hours after stimulation at pH 5.0): 41%
- inhibition of GAG release ([1]; 48 hours after stimulation at pH 5.0): no differentiating effect
- effect on acid-stimulated GAG release / degradation (FIG. 3) ([1]; pH 5.0): very impressive effect
- solubility [2]: > 5920 µg/mL
- pIC50 (Cathepsin D): 8.68

Compound: AcWYRGRL-DOTA-(Pepstatin A)3 [HHY-328]
- solubility in DMSO [3]: only slightly soluble

Compound: AcWYRGRL-DOTA-Cy5.5-[Gd3+] [HHY-338]
- T1 [4]: 11493 ± 27 ms

Compound: AcYRLGRW-DOTA-[Gd3^+] [HHY-341Gd]
- T1 [4]: 1368 ± 10 ms
